The values that follow come from US10004701B2, “Methods and compositions for treating infection” (UNIVERSITY OF ROCHESTER, priority 2012, dated 2018).

Assay in all cases: AK assay 384-well format, Prestwick library screening
One experiment has as its system P. aeruginosa. Type of experiment: cell-based, Pseudomonas aeruginosa. Conditions: 50 μM final drug concentration; for fold induction at 50 µM: Pseudomonas aeruginosa, 3 h, read-out: AK-based Prestwick Library Screening Results, P. aeruginosa (fold increase in extracellular AK activity).
The next experiment deals with K. pneumoniae. The experiment is classed as cell-based, Klebsiella pneumoniae. Conditions: 50 μM final drug concentration; for fold induction at 50 µM: Klebsiella pneumoniae, 3 h, read-out: AK-based Prestwick Library Screening Results, K. pneumoniae (fold increase in extracellular AK activity).
The test system of the next experiment is E. cloacae. The experiment is classed as cell-based, Enterobacter cloacae. As to conditions: 50 μM final drug concentration; for fold induction at 50 µM: Enterobacter cloacae, 3 h, read-out: AK-based Prestwick Library Screening Results, E. cloacae (fold increase in extracellular AK activity).
The subject of another experiment is E. coli. Type of experiment: cell-based, Escherichia coli. As to conditions: 50 μM final drug concentration; for fold induction at 50 µM: Escherichia coli, 3 h, read-out: AK-based Prestwick Library Screening Results, E. coli (fold increase in extracellular AK activity).
For the next experiment, the system named is E. faecium. Type of experiment: cell-based, Enterococcus faecium. Conditions: 50 μM final drug concentration; for fold induction at 50 µM: Enterococcus faecium, 3 h, read-out: AK-based Prestwick Library Screening Results, E. faecium (fold increase in extracellular AK activity).
Experiment [1] relates to S. aureus strain USA300-0114. The experiment is classed as cell-based, Staphylococcus aureus. As to conditions: 50 μM final drug concentration; for fold induction at 50 µM: Staphylococcus aureus, USA300, 3 h, read-out: AK-based Prestwick Library Screening Results, S. aureus (fold increase in extracellular AK activity).
The test system of experiment [2] is A. baumannii strain 98-37-09. The experiment is classed as cell-based, Acinetobacter baumannii. Conditions: 50 μM final drug concentration; for fold induction at 50 µM: Acinetobacter baumannii, 983709, 3 h, read-out: AK-based Prestwick Library Screening Results, A. baumannii (fold increase in extracellular AK activity).
The mark [3] stands for this setting: cutoff for positive-scoring molecules 3-fold increase.
Where [4] appears, read: planktonic, cutoff for positive-scoring molecules 3-fold increase.

Each structure is given as a SMILES string. Counter-ions that a name gives are not always drawn. Like-named read-outs stand apart in the source and are kept apart here.

Consider `CC1CCC2C(C)C3C(CC4C5CC=C6CC(OC7OC(CO)C(O)C(OC8OC(CO)C(O)C(O)C8O)C7OC7OC(C)C(O)C(O)C7O)CCC6(C)C5CCC43C)N2C1` (stereo not drawn) [Solanine alpha], for which, in the experiment on P. aeruginosa (planktonic, […]), the “AK-based Prestwick Library Screening Results, P. aeruginosa (fold increase in extracellular AK activity)” value worked out at 1.2. Also, the “AK-based Prestwick Library Screening Results, K. pneumoniae (fold increase in extracellular AK activity)” value in the experiment on K. pneumoniae (planktonic, […]) is 1.2. Further, the “AK-based Prestwick Library Screening Results, E. cloacae (fold increase in extracellular AK activity)” value with E. cloacae (planktonic, […]) is 1.7. Also, the “AK-based Prestwick Library Screening Results, E. coli (fold increase in extracellular AK activity)” value in the experiment on E. coli (planktonic, […]) came to 1.2. For the same compound, the “AK-based Prestwick Library Screening Results, E. faecium (fold increase in extracellular AK activity)” value in the experiment with E. faecium (planktonic, […]) was determined as 1.0. Moreover, in experiment [1] (planktonic, […]), the “AK-based Prestwick Library Screening Results, S. aureus (fold increase in extracellular AK activity)” value was determined as 1.2. Further, in experiment [2] (planktonic, […]), the “AK-based Prestwick Library Screening Results, A. baumannii (fold increase in extracellular AK activity)” value came out at 1.3.

Regarding `C[C@@H]1CC[C@@]2(NC1)O[C@H]1C[C@H]3[C@@H]4CC=C5C[C@@H](O)CC[C@]5(C)[C@H]4CC[C@]3(C)[C@H]1[C@@H]2C` [Solasodine], the fold induction at 50 µM with P. aeruginosa (planktonic, […]) amounted to 1; with K. pneumoniae (planktonic, […]), 0.7; in the experiment on E. cloacae (planktonic, […]), 0.9; in the experiment with E. coli (planktonic, […]), 1; in the experiment on E. faecium (planktonic, […]), 0.9; in experiment [1] (planktonic, […]) it was 0.6. Besides, in experiment [2] (planktonic, […]), the fold induction at 50 µM was 0.7.

With `CC(C)NCC(O)c1ccc(NS(C)(=O)=O)cc1` (centres unmarked) [Sotalol hydrochloride], the fold induction at 50 µM in the experiment with P. aeruginosa (setting [3]) was found to be 0.4; in the experiment with K. pneumoniae (setting [3]), 0.5; in the experiment with E. cloacae (setting [3]), 0.4; with E. coli (setting [3]) it was 0.4; with E. faecium (setting [3]) it was 0.8; in experiment [1] (setting [3]), 0.4. For the same compound, in experiment [2] (setting [3]), the fold induction at 50 µM came to 0.5.

As for `C1CCN2C[C@@H]3C[C@@H](CN4CCCC[C@@H]34)[C@H]2C1` [Sparteine (−)], in the experiment on P. aeruginosa (planktonic, […]), the “AK-based Prestwick Library Screening Results, P. aeruginosa (fold increase in extracellular AK activity)” value was found to be 1.0. In addition, in the experiment on K. pneumoniae (planktonic, […]), the “AK-based Prestwick Library Screening Results, K. pneumoniae (fold increase in extracellular AK activity)” value was 1.0. In addition, in the experiment on E. cloacae (planktonic, […]), the “AK-based Prestwick Library Screening Results, E. cloacae (fold increase in extracellular AK activity)” value came to 1.7. In addition, the “AK-based Prestwick Library Screening Results, E. coli (fold increase in extracellular AK activity)” value with E. coli (planktonic, […]) was 1.3. The “AK-based Prestwick Library Screening Results, E. faecium (fold increase in extracellular AK activity)” value with E. faecium (planktonic, […]) worked out at 1.0. Also, in experiment [1] (planktonic, […]), the “AK-based Prestwick Library Screening Results, S. aureus (fold increase in extracellular AK activity)” value is 1.1. In addition, the “AK-based Prestwick Library Screening Results, A. baumannii (fold increase in extracellular AK activity)” value in experiment [2] (planktonic, […]) came to 1.0.

For `CN[C@@H]1[C@H](O)[C@H](NC)[C@H]2O[C@@]3(O)C(=O)C[C@@H](C)O[C@H]3O[C@@H]2[C@H]1O` [Spectinomycin dihydrochloride], the fold induction at 50 µM in the experiment on P. aeruginosa (setting [4]) turned out to be 0.5; in the experiment with K. pneumoniae (setting [4]), 0.2; with E. cloacae (setting [4]) it was 0.6; in the experiment with E. coli (setting [4]), 0.6; in the experiment with E. faecium (setting [4]) it was 1; in experiment [1] (setting [4]) it was 0.6. The fold induction at 50 µM in experiment [2] (setting [4]) was 0.5.
